{"source": "patent US20040228830A1", "about": "(Collegium Pharmaceutical, Inc., priority 2003, published 2004)", "origin": "cited, not measured here", "key": {"[1]": {"conditions": "metabolism in the liver"}, "uptake of dopamine": {"biological_target": "uptake of dopamine (Homo sapiens, UniProt Q01959)", "sequence (Q01959 whole entry)": "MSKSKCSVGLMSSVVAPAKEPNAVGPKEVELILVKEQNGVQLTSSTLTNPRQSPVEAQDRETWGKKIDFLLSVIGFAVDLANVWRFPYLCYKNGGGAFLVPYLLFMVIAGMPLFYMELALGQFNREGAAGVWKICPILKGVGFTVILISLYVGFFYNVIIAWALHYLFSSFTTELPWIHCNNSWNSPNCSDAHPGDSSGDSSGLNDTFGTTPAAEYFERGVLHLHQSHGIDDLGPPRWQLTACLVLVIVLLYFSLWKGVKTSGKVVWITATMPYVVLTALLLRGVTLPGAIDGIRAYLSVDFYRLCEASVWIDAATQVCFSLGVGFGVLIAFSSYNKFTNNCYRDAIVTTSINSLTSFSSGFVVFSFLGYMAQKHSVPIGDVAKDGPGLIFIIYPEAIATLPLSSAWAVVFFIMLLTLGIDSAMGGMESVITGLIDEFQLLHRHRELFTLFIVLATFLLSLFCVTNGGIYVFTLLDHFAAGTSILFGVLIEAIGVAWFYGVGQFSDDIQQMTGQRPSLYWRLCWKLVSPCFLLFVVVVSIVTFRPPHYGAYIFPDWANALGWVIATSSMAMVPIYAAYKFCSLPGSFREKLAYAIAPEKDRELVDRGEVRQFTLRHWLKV"}, "[2]": {"conditions": "200 mg/day"}, "[3]": {"system": "beta adrenoceptors in rat cortex", "conditions": "after chronic administration"}, "[4]": {"conditions": "after one week of dose escalation"}, "[5]": {"conditions": "human, in vivo"}, "[6]": {"conditions": "intravenous, 10 patients"}, "[7]": {"conditions": "75-100 mg/day twice daily for 8 weeks, elderly patients with depression"}}}
{"smiles": "CCN(CC)C(=O)C1(c2ccccc2)CC1CN", "note": "(stereo not shown) [milnacipran, Milnacipran]", "values": [{"measurement": "number of chemically identified metabolites", "setting": "[1]", "result": "ten"}, {"measurement": "effect on the uptake of dopamine", "setting": "uptake of dopamine", "result": "does not affect"}, {"measurement": "most common dose-related side effect reported by patients", "setting": "four weeks dose escalation", "result": "nausea"}, {"measurement": "pain improvement", "setting": "twice-a-day administration of immediate release formulation, fibromyalgia", "result": "statistically superior to that of placebo treatment"}, {"measurement": "antidepressant efficacy versus lower doses", "setting": "[2]", "result": "superior to the lower doses"}, {"measurement": "effect on the number of beta adrenoceptors in rat cortex", "setting": "[3]", "result": "does not affect"}, {"measurement": "most commonly reported reason for discontinuation of treatment because of adverse effects", "setting": "[4]", "result": "nausea and vomiting"}, {"measurement": "toxicity in humans", "setting": "[5]", "result": "non-toxic"}, {"measurement": "patients reporting transient nausea", "setting": "[6]", "result": "five"}, {"measurement": "only adverse event reported more frequently for milnacipran recipients than for imipramine recipients", "setting": "[7]", "result": "nausea"}]}
